Patent US20160022762A1, “Agent for Eliminating Multidrug Resistance” (priority 2008, published 2016)
Entries after “also recorded” stand apart in the source; their conditions may differ. Peptide text beside a SMILES is read from it.

Key:
[1] = solubility of the active principle; format: physicochemical
[2] = tested on: multidrug resistance proteins in the Hep-2 cells; assay: calcein formation rate in Hep-2 cells with Co2+ ions; format: cell-based, human; design: calcein formation rate increment ratio: dose or concentration left out as unconfirmed; settings: Co2+ ions present
[3] = tested on: human laryngeal cancer cells Hep-2; assay: survival of Hep-2 cells exposed to arsenate (crystal violet); format: cell-based
Protocol: The human laryngeal cancer cells Hep-2 in Dulbecco's modified Eagle's medium (hereinafter referred to as DMEM) (Sigma) supplemented with 10% foetal calf serum (Sigma) and 40 μg/ml of gentamycin (Sigma) were sown in a 96-well culture plate, 0.1 ml per well, at a concentration of 50,000/ml, followed by adding the agents being examined and incubating for 72 hour at 37° C. in an atmosphere of 5% CO2 in air. After incubation, the cells were stained with 0.02% crystal violet solution (Sigma) in 20% ethanol for 10 minutes followed by discarding the stainer solution, washing the cells with water and adding a 0.1% SDS solution for the extraction of the stainer from the cells. The optical density was measured at 570 nm on the spectrophotometer Multiscan Plus. The effect was determined by the formula: No/Nk=(Do−D)/(Dk−D) 100%, where Do, Dk, D are optical densities in the experiment, control, and the background one, respectively, and No/Nk is the cell survival rate: the number of the live cells in the experiment in relation to the control.

[4] = tested on: Hep-2 cells; assay: growth of Hep-2 tumour cells (trypan blue count); format: cell-based, human; settings: 1 μg/ml, three days
Protocol: Human laryngeal cancer cells Hep-2 in DMEM medium supplemented with 10% foetal calf serum and 40 μg/ml gentamycin were inoculated in 2-ml penicillin-containing vials, 200 thousand per each vial. The hexapeptide at a dose of 1 μg/ml was added 3 hours after cell inoculation (when they had already adhered to glass) and left in the medium for the whole period of incubation. Three days after inoculation, the cells were detached from glass with trypsin, followed by calculating the number of the living cells: unstained with a 0.04% solution of trypan blue.

[5] = local irritating effect; settings: in vivo
[6] = allergic activity
[7] = mutagenic activity
[8] = preclinical and clinical studies: toxic reaction and side effects; format: in vivo
[9] = tested on: stage III cervical carcinoma; assay: clinical case, chemoradiotherapy with hexapeptide (Example 5); format: in vivo, human
Protocol: Patient. Clinical diagnosis: stage III cervical carcinoma (T3NX-1M0). Examination of the patient included clinical and laboratory assessment both at admission and during treatment. […] general condition was of moderate severity. […] The percentage of CD3, CD4, CD8, CD16-positive cells was decreased relative to the average statistical normal values 2-fold. The person prior to antineoplastic treatment had received a course of 5-time administration of the hexapeptide in the form of 1 ml of 0.005% solution subcutaneously daily for 5 days. Chemoradiotherapy was carried out according to the regimen: 500 mg of 5-fluorouracil (total dose 2,500 mg). During the whole course of chemoradiotherapy, the person received 1 ml of 0.005% solution of the hexapeptide (biopoetin) 5 times daily. Two days after discontinuation of 5-fluorouracil, the patient underwent remote irradiation at a single dose of 4 Gy on the background of intravenous administration of 30 mg of cysplastin for 3 days (total dose of cysplastin amounting to 90 mg). Then radiotherapy was continued in the mode of a daily multifractionated dose. Irradiation was carried out up to a focal dose of 20 Gy onto the area of the primary focus and zones of regional metastatic spreading, followed by additional intracavitary gamma-therapy (10 fractions 5 Gy each) and remote irradiation was continued onto the zones of parametrial metastatic spreading up to the total dose amounting to 44 Gy.

[10] = tested on: stage III oesophageal cancer; format: in vivo, human
Protocol: Clinical diagnosis: stage III oesophageal cancer (T3-4N0-2MOP3). At admission, the patient's general condition of moderate severity. The laboratory indices of the total blood count without pronounced alterations. Noted was a considerable disbalance of the indices of the oxidative-antioxidative system on the background moderate-degree immunosuppression. The state of the oxidative-antioxidative system in the patients was assessed by intensity of lipid peroxidation via measuring blood serum concentration of malonic dialdehyde (MDA, μmol/L) and endogenous antioxidants: lactoferrin (LF, mg/L), caeruloplasmin (CP, conventional units), and the antioxidant enzyme catalase (CAT, conventional units). The analysis of percentage content of the main subpopulations of T-lymphocytes was carried out to superficial receptors of CD3 (T-lymphocytes), CD4 (T-helpers/inducers), CD8 (T-suppressors/cytotoxic lymphocytes), CD16 (natural killers), CD25 (activated lymphocytes expressing the receptor to interleukin-2), CD72 (B-lymphocytes). […] At the same time, the indices of the lymphocytic link were virtually within the normal values. Since CP and LF are proteins of the acute phase of inflammation, an increase in the blood serum reflected the presence of an inflammatory process accompanying the development of oesophageal cancer. Prior to chemoradiotherapy, the patient received intramuscular administration of the hexapeptide daily at a single dose of 1 ml of 0.1% solution 5 times a day for 5 days. Comprehensive chemoradiotherapy was carried out according to the following regimen: 750 mg of 5-fluorouracil (5-FU) was administered intravenously for 5 days (total dose 3,750 mg), two days after the end of administration of 5-FU, the patients was irradiated according to the regimen of dynamic fractionation of the dose at a single dose of 4 Gy on the background of intravenous administration of cysplastin at a dose of 30 mg for 3 days (total dose of cysplastin 90 mg, total focal dose 12 Gy). During the whole period of chemoradiotherapy, the patients was given hexapeptide at a single dose of 100 μg twice daily (in the morning and evening). Commencing from day 11, radiotherapy was continued in the mode of the classical fractionated dose, with the single dose equalling 2 Gy (total focal dose 40 Gy).

[11] = tested on: squamous-cell oesophageal cancer; format: in vivo, human
Protocol: The disease was manifested by retrosternal pain, weakness, weight loss. […] Prior to chemoradiotherapy, the patient was given the hexapeptide in the form of a suppository at a dose of 5 mg five times daily for 5 days. The first stage of combined-modality treatment consisted of two courses of polychemotherapy. During the whole period of chemoradiotherapy, the patient received treatment with the proposed agent in the form of rectal suppositories 5 μg twice daily (in the morning and evening).

[12] = tested on: breast cancer T4cN2M0; assay: clinical case, radiotherapy and CMF polychemotherapy with hexapeptide intranasal spray (Example 8); format: in vivo, human
From the text: Onto the area of the left breast from two tangential opposed fields and with the figured field onto the zones of regional lymph outflow on the left radiotherapy was begun using linear accelerator (LU-20-SL with the deceleration-radiation energy of 6 MeV) in the mode of average dose fractionating, at 3 Gy daily 5 times a week onto the area of the tumour up to the total focal dose (TFD) 45 Gy equivalent to the mode of the conventional fractionation consisting of 2 Gy a day, with TFD 60 Gy, and onto the zones of regional lymph outflow on the left (supraclavicular, subclavicular, axillary and parasternal sites) at a single dose of 3 Gy up to the TFD 33-36 Gy equivalent to 44-48 Gy of the conventional fractionation.
The patient's state after the irradiation course was satisfactory, with the tumour ulceration being at the scarring stage and virtually no discharge. Two weeks later, polychemotherapy was begun according to the CMF regimen carried out for 4 weeks once a week. During 5 days prior to commencing chemotherapy, the person daily received the hexapeptide in the form of an intranasal dosed spray […] at a single dose of 100 μg. The CMF regimen included intravenous drip administration of 1 g of 5-fluorouracil and 40 mg of methotrexate and intramuscular administration of 1 g cyclophosphane. During polychemotherapy, the patients daily received the hexapeptide in the form of an intranasal dosed spray, with the single dose equalling 100 μg.
A repeat course of CMF. The patient received intravenously 40 mg of methotrexate and 1 g of 5-fluorouracil and intramuscularly 1 g of cyclophosphane. The state after polychemotherapy was satisfactory. A cicatrix formed on the site of the previous breast ulceration. Regional lymph nodes were not perceived, the breast was soft to the touch, with no fresh infiltrates. On the mammograms, the tumour node as compared with the findings of mammography obtained at the beginning of treatment had decreased to 5 mm in diameter. Then sequentially a course of polychemotherapy was carried out according to the same regimen and in the same doses. During 5 days prior to commencing chemotherapy, the patient daily received hexapeptide in the form of an intranasal dosed spray 5 times a day at a single does of 100 μg. During polychemotherapy, the patient daily received hexapeptide in the form of an intranasal dosed spray 5 times a day at a single does of 100 μg.

[13] = in vivo
[14] = tested on: multidrug resistance-associated transport proteins in Hep-2 cells; assay: rhodamine 123 efflux rate from Hep-2 cells
Protocol: While studying the effect of the inhibitors on the release of Rh123, to the cuvette after several minutes of the normal excretion of the stainer we added the inhibitor in the required concentration. Determining the control and inhibited constants of rhodamine excretion rates on one plate decreases the error of determining their ratio, necessary for obtaining the R value. […] The total amount of rhodamine in the cells was determined by the difference of the fluorescence levels after adding digitonin and before adding cells to the cuvette. The relative amount of Rh123 in the cells (N) was determined according to the following formula: N=1−{It−I0/Imax−I0}, where It, I0, Imax are the values of fluorescence of Rh123 in the medium at the time moments t, 0 and the peak fluorescence after adding digitonin, respectively.
The effect of each concentration of the agents on Rh123 excretion was determined in several experiments.

[15] = target: T1, MRP (Mus musculus, UniProt O35379); assay: calcein efflux rate from preliminarily calcein-loaded R388VR cells
[16] = tested on: P-gp; assay: calcein formation rate from calcein AM in R388VR cells without Co2+; settings: up to 1.2 μM
From the text: The rate of calcein formation in the dish with calcein AM added without Co2+ ions makes it possible to determine the activity of the transport proteins expelling calcein AM out of cells, rather than that of the proteins capable of transporting calcein from the cells (MRP), since in this case total calcein is registered: both intra- and extracellular.

[17] = target: T1, MRP; assay: calcein formation rate in R388VR cells in the presence of Co2+ (extracellular calcein quenching); settings: presence of Co, 12 μM
[18] = tested on: tumour cells; settings: calcium channel blocker; cited from earlier work

T1 sequence (O35379 whole entry): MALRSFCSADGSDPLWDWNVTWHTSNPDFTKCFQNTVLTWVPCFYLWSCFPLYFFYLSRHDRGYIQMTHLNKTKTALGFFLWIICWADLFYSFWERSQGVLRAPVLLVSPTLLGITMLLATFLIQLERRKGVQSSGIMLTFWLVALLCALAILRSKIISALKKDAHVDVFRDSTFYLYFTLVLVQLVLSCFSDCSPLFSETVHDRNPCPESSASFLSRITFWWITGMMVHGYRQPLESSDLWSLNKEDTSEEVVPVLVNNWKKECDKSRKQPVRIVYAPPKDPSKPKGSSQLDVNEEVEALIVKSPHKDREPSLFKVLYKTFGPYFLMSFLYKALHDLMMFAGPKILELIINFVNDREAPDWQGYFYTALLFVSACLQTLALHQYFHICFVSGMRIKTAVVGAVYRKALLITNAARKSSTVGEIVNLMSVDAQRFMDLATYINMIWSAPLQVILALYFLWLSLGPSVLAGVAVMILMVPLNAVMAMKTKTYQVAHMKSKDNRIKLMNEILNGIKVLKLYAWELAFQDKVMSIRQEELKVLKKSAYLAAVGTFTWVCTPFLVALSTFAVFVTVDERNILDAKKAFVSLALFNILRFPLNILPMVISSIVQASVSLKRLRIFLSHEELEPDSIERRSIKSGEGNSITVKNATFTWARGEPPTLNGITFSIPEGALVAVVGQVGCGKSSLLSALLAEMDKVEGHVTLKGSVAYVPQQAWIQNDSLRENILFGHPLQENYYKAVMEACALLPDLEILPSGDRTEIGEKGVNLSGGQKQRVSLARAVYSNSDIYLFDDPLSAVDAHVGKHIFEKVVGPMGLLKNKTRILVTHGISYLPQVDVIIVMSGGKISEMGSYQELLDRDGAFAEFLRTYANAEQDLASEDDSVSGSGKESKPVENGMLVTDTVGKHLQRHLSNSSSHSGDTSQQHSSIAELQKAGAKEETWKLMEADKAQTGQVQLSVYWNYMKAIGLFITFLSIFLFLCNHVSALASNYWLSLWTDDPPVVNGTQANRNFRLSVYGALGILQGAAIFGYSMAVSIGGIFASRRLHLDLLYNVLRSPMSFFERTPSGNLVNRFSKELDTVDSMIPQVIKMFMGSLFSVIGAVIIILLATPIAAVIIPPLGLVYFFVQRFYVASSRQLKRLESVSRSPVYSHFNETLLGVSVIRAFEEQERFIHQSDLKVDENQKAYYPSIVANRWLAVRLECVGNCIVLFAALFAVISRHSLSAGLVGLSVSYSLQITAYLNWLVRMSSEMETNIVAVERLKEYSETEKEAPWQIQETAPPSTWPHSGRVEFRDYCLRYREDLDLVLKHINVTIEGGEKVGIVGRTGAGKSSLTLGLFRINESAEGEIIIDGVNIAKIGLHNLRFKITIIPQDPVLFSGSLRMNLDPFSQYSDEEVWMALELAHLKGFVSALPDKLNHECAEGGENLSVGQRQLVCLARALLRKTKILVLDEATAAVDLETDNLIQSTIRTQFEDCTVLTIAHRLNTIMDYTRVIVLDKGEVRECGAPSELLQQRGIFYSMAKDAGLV

In the case of NCCCC[C@H](NC(=O)CNC(=O)[C@H](Cc1c[nH]cn1)NC(=O)[C@@H](N)CCCCN)C(=O)N[C@@H](Cc1c[nH]cn1)C(=O)NCC(=O)O [hexapeptide, lysyl-histidyl-glycyl-lysyl-histidyl-glycine] (H-KHGKHG-OH), the solubility in alcohol ([1]; alcohol) is reported as “not alcohol- or chloroform-soluble”, the solubility in chloroform ([1]; chloroform) is reported as “not alcohol- or chloroform-soluble” and the “solubility in isotonic sodium chloride solution” value ([1]; isotonic sodium chloride solution) is reported as “readily soluble”. For the same molecule, the solubility in water ([1]; water) was “readily soluble”, the “calcein formation rate increment ratio” value [2] was 2.6 and the “increase of rate of calcein formation in cells” value ([2]; 1.2 nM) was “twofold”. The “increase in sensitivity of Hep-2 cells to arsenate” value ([3]; 1.2 nM) was 3 fold, the “effect on sensitivity to arsenate and survival of Hep-2 cells” value ([3]; 50 μM arsenate) was “increases sensitivity of the tumour cells to the cytostatic preparation arsenate and inhibits survival of the Hep-2 cells” and the “effect on growth of Hep-2 tumour cells” value [4] was “virtually does not influence the growth”. For the same molecule, the local irritating effect [5] was “no local irritating effect”, the allergic activity [6] was “neither allergic nor mutagenic activity” and the mutagenic activity [7] was “neither allergic nor mutagenic activity”. The “toxic reaction and side effects” value [8] was “neither induces a pronounced toxic reaction nor leads to development of side effects”, the MDR development [9] was “No events of MDR development were observed” and the “indices of immunity and total blood count after chemoradiotherapy” value [9] was “did not virtually alter”. The tumour outcome [9] was “complete resorption of the tumour”, the “side reactions during chemoradiotherapy” value ([9]; 1 ml of 0.005% solution subcutaneously) was “No pronounced side reactions were observed” and the disease relapses ([10]; 12-month follow-up) was “no disease relapses”. The “indices of natural cellular and T-lymphocytic immunity, acute inflammation phase proteins” value ([10]; human, in vivo) was “did not alter substantially”, the “symptoms of MDR” value ([10]; with chemoradiotherapy) was “No symptoms of MDR were observed” and the tumour outcome ([10]; with chemoradiotherapy) was “complete resorption of the tumour”. For the same molecule, the “tumour at check-up examinations” value ([11]; after polychemotherapy) was “no oesophageal tumour perceived”, the “metastases into lymph nodes” value ([11]; histology of subtotal oesophageal resection) was “No metastases into lymph nodes were detected” and the “manifestations of toxicosis during polychemotherapy” value ([11]; human, in vivo) was “No markedly pronounced manifestations of toxicosis were observed”. For the same molecule, the “development of MDR” value ([12]; 5th course of CMF) was “No development of MDR was noted”, the “tumour node diameter on mammograms” value ([12]; after repeat course of CMF) was 5 mm and the “tumour node size on mammograms” value ([12]; before fourth course of polychemotherapy) was 3.8 cm. The “relapse or metastases at examination” value ([12]; clinical and roentgenological study, check-up 15 months after the beginning of treatment) was “no findings suggesting either a breast tumour relapse or metastases; also recorded: no signs of the disease's relapses”, the “tolerance of chemoradiotherapy / polychemotherapy” value ([12]; intranasal dosed spray, CMF regimen) was “tolerated chemoradiotherapy satisfactorily; also recorded: well tolerated” and the “death of laboratory animals after a single dose” value [13] was “caused no death”. For the same molecule, the “optimal concentration of maximal inhibition of Rh123 excretion” value [14] was 1 ng/mL, the “R value (Rh123 excretion inhibition)” value ([14]; 1 ng/ml) was 3.2 and the “decrease of calcein excretion rate” value ([15]; 1.2 nM) was 1.5 fold. The “calcein excretion rate inhibition ratio” value ([15]; 120 nM) was 2.6, the “effect on calcein formation rate” value [16] was “does not act upon the calcein formation rate” and the “increase of calcein formation rate” value [17] was “double”.

In the case of COc1ccc(CCN(C)CCCC(C#N)(c2ccc(OC)c(OC)c2)C(C)C)cc1OC (stereo not shown) [verapamil], the “dose exhibiting in vitro MDR inhibiting activity” value [18] is given as “approximately 10 μM”.
